Test results as given in patent US20230293535A1, “ERBB/BTK INHIBITORS” (Dizal (Jiangsu) Pharmaceutical Co., Ltd., priority 2018, published 2023).
Counter-ions that a name gives are not always drawn. Like-named read-outs stand apart in the source and are kept apart here.

What was measured:
[1] = In vitro human hepatocytes clearance assay; details: both, human, cryopreserved human hepatocytes (suspension), human hepatocytes Clint (µL/min/10^6cells), mixed gender human hepatocytes, incubation up to 100 min
[2] = biological target: T1, human Her2 exon 20 insertion mutation YVMA (Homo sapiens, UniProt P04626, INS775YVMA); experiment: Her2 Exon 20 YVMA insertion cellular phosphorylation inhibition (MSD p-Her2 Y1248/total Her2); type: cell-based; details: Her2 YVMAins cells, 4 h compound;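 note: lentivirally transduced NIH-3T3 cells in 1% FBS medium, electrochemiluminescent MSD read-out, graded compound concentrations at 37 °C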
T1 construct: expressed in transfected cells; host or cells: NIH-3T3, lentiviral transduction, puromycin selection
T1 sequence (P04626 with tags, fused parts or gaps INS775YVMA): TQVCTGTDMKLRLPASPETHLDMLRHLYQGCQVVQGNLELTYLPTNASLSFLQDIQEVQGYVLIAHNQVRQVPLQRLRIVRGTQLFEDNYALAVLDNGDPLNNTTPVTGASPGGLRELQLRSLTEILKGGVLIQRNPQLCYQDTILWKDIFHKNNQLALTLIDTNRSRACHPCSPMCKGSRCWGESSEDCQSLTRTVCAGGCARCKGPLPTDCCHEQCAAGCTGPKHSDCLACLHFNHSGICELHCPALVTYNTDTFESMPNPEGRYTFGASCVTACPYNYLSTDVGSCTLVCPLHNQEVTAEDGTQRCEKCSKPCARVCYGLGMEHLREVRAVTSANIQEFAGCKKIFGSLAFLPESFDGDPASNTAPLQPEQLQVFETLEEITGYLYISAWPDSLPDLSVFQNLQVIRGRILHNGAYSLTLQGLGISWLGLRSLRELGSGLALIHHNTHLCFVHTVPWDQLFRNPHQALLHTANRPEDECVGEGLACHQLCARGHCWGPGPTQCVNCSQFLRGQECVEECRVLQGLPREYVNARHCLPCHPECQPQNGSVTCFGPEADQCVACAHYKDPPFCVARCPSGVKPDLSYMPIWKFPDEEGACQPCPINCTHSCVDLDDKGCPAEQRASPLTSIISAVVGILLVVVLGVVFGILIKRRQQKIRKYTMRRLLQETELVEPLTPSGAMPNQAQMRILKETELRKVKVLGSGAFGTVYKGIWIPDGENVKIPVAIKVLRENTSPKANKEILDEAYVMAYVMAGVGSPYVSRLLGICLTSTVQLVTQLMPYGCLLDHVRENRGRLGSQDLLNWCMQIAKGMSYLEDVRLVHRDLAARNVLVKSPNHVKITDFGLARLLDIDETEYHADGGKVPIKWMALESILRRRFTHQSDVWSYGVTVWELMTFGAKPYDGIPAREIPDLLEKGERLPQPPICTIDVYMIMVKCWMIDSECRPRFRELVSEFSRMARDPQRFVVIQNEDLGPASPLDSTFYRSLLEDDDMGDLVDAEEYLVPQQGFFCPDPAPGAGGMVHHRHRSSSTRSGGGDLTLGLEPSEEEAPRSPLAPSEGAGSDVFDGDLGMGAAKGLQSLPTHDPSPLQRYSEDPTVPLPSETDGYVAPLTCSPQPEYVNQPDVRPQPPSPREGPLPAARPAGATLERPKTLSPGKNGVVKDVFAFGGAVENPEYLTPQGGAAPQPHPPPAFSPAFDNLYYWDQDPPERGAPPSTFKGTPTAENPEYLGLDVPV

[3] = test system: TMD-8 cells; experiment: BTK (wt) cell proliferation, TMD-8 (CellTiter-Glo, 72 h); type: cell-based; details: Homo sapiens, TMD8, 72 h, TMD-8 cells, 72 h, CellTiter-Glo; read-out: BTK WT TMD-8 GI50;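 note: viable cells quantified by ATP-based luminescence, proliferation expressed as percent of DMSO control after subtracting a time-zero baseline plate read at dosing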
[4] = test system: Ba/F3 EGFR ASV ins cells; experiment: Cell proliferation, Ba/F3 EGFR ASV ins (CellTiter-Glo, 72 h); type: cell-based; details: Ba/F3 EGFR, 72 h;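 note: IL3-independent Ba/F3 cells transduced with EGFR V769_D770insASV, cellular ATP luminescence after compound exposure, growth relative to DMSO control with the day-0 baseline reading subtracted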
[5] = In vitro rat hepatocytes clearance assay; details: male, rat, cryopreserved rat hepatocytes (suspension), rat hepatocytes Clint (µL/min/10^6cells), 1 µM-range incubation up to 100 min
[6] = test system: Her2 exon 20 insertion YVMA transduced NIH-3T3 cell line; experiment: Cell proliferation, Her2 YVMAins NIH-3T3 (CellTiter-Glo, 72 h); type: cell-based; details: Mus musculus, NIH3T3, 72 h, Her2 YVMAins cells, 72 h proliferation; read-out: Her2 Exon 20 YVMA insertion GI50;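 note: viable cells quantified by ATP luminescence, growth over a day-zero baseline plate expressed as percent of DMSO control growth, compound dilution series in 10% FBS medium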
[7] = test system: DB cells; experiment: BTK (wt) cell proliferation, DB (CellTiter-Glo, 72 h); type: cell-based; details: Homo sapiens, DB, DB cells, CellTiter-Glo, read-out: Non-BCR activated DB GI50;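 note: DB cells in 384-well plates given a dilution series of compound, viable cells read by ATP luminescence, growth expressed versus DMSO control after subtracting a time-zero plate reading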
[8] = test system: OCI-LY-10 cells; experiment: BTK (wt) cell proliferation, OCI-LY-10 (CellTiter-Glo, 72 h); type: cell-based; details: Homo sapiens, OCI-Ly10, 72 h, OCI-LY-10 cells, 72 h, CellTiter-Glo; read-out: BTK WT OCI-LY-10 GI50;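 note: viable cells quantified via cellular ATP luminescence, proliferation given as percent of DMSO control after subtracting a duplicate plate read at time of dosing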
[9] = test system: NCI-H1975 EGFR L858R/T790M cells; experiment: Cell proliferation, NCI-H1975 EGFR L858R/T790M (CellTiter-Glo, 72 h); type: cell-based; details: Homo sapiens, NCI-H1975, 72 h;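 note: viable cells quantified by luciferase-based ATP luminescence, proliferation expressed relative to DMSO-treated wells (100%) after subtracting a parallel plate read at the time of dosing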
[10] = test system: Ba/F3 EGFR NPH ins cells; experiment: Cell proliferation, Ba/F3 EGFR NPH ins (CellTiter-Glo, 72 h); type: cell-based; details: Ba/F3 EGFR, 72 h;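 note: IL3-independent cells carrying constitutively phosphorylated EGFR, compound dilution series, viable cells quantified by ATP luminescence, growth relative to DMSO wells after subtracting pre-dosing (day 0) baseline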
[11] = test system: WT EGFR cell line A-431; experiment: Cell proliferation, WT EGFR A431 (CellTiter-Glo, 72 h); type: cell-based; details: Homo sapiens, A-431, 72 h;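 note: proliferation from a luminescent ATP viability signal, expressed as 100 × (treated minus time-zero plate) over (DMSO control minus time-zero plate), cells grown with 10% FBS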
[12] = test system: Ri-1 cells; experiment: BTK (wt) cell proliferation, Ri-1 (CellTiter-Glo, 72 h); type: cell-based; details: Ri-1, 72 h, Ri-1 cells, 72 h, CellTiter-Glo; read-out: BTK WT Ri-1 GI50;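 note: viable cells quantified as cellular ATP luminescence, proliferation normalized to a time-zero plate and the DMSO control, compounds tested across a dilution series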
[13] = biological target: T2, human EGFR exon 20 V769_D770insASV (Homo sapiens, UniProt P00533, INS769ASV); experiment: EGFR Exon20 ASV insertion cellular phosphorylation inhibition (MSD pEGFR Y1068/total EGFR); type: cell-based; details: Ba/F3 EGFR ASV ins cells, 4 h compound, p-EGFR(Y1068)/total EGFR;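 note: electrochemiluminescent readout on an MSD SECTOR Imager, IL3-independent transduced cells in medium with 1% FBS, compound concentration series at 37 °C and 5% CO2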
T2 construct: expressed in transfected cells; host or cells: Ba/F3 (DSMZ ACC-300), lentiviral transduction, puromycin selection, IL3 depletion
T2 sequence (P00533 with tags, fused parts or gaps INS769ASV): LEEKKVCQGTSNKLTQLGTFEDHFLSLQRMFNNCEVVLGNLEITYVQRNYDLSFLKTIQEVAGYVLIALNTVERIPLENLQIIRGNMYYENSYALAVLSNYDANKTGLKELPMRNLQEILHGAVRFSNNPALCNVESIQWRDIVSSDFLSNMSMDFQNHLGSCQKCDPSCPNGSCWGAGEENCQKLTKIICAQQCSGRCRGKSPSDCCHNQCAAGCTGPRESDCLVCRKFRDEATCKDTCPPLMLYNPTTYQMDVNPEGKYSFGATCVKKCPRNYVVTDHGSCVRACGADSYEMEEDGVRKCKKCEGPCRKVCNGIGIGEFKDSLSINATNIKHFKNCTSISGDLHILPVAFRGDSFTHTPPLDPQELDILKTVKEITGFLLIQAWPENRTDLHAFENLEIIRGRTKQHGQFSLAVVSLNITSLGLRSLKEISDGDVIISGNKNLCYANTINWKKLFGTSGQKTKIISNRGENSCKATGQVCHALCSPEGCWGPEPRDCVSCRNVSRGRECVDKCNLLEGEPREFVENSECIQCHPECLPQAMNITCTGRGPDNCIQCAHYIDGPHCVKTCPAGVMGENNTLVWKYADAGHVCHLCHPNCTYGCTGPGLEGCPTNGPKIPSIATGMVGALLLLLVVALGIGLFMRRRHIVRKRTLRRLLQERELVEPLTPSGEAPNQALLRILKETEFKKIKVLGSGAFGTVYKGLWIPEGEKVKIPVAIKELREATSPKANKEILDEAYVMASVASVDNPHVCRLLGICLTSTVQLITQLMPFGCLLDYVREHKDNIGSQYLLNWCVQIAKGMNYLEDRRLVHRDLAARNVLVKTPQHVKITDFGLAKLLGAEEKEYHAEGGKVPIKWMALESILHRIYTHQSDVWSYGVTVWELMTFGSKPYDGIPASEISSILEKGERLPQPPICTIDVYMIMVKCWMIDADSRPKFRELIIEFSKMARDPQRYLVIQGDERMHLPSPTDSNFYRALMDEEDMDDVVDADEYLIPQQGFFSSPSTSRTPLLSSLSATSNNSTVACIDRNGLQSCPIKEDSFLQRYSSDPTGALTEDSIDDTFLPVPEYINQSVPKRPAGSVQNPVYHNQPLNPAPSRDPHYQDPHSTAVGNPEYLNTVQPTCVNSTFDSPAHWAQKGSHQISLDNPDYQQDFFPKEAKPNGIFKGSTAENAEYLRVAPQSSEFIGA

[14] = biological target: T3, human EGFR exon 20 H773_V774insNPH (Homo sapiens, UniProt P00533, INS773NPH); experiment: EGFR Exon20 NPH insertion cellular phosphorylation inhibition (MSD pEGFR Y1068/total EGFR); type: cell-based; details: Ba/F3 EGFR NPH ins cells, 4 h compound, p-EGFR(Y1068)/total EGFR;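 note: IL3-independent Ba/F3 cells with constitutively phosphorylated EGFR, compound exposure at 37 °C under 5% CO2, electrochemiluminescent MSD measurement of the p-EGFR to total EGFR ratio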
T3 construct: host or cells: Ba/F3
T3 sequence (P00533 with tags, fused parts or gaps INS773NPH): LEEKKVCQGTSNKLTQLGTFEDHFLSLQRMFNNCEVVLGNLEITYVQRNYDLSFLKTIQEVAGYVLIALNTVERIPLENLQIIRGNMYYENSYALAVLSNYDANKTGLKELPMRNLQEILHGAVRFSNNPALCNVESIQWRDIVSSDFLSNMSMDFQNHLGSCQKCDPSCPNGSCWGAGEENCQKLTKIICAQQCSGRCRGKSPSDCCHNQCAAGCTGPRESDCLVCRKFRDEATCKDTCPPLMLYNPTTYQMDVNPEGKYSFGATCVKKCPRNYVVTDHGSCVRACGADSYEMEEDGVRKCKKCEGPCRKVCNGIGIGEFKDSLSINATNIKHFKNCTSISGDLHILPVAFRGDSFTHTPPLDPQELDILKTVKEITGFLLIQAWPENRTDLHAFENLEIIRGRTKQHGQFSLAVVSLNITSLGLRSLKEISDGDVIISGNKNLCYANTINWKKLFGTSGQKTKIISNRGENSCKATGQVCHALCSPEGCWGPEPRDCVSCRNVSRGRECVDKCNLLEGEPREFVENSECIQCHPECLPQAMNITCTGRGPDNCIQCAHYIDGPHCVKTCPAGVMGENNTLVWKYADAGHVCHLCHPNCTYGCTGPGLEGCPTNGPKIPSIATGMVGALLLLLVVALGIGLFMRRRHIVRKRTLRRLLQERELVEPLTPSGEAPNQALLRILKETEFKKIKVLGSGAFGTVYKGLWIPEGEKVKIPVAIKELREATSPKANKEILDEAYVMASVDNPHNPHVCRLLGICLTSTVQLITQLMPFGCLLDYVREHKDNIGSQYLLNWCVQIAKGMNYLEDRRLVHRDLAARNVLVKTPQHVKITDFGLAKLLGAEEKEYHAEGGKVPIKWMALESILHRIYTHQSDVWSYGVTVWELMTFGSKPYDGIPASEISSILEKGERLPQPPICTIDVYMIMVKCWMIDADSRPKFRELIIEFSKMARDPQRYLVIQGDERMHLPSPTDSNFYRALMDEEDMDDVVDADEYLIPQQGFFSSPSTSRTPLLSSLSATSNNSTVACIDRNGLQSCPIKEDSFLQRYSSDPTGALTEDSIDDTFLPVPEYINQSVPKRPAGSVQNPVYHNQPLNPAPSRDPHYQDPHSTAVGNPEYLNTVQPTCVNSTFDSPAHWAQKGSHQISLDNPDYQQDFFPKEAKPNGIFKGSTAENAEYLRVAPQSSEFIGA

[15] = biological target: T4, WT EGFR (Homo sapiens, UniProt P00533); experiment: WT EGFR cellular phosphorylation inhibition in A-431 (hEGF stimulated, MSD); type: cell-based; details: A431 cells, 4 h compound, then 100 ng/ml hEGF 10 min;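 note: electrochemiluminescence read-out of EGFR Tyr1068 phosphorylation expressed as ratio to total EGFR, cells kept in medium with 1% FBS, compounds tested as a concentration series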
T4 construct: host or cells: A-431
Description: One day before the test, WT or mutant cells were seeded in 96 well plates at appropriate concentrations with corresponding growth media supplemented with 1% FBS, and incubated overnight. The next day, tested compounds at a series of concentrations were added into each individual well of the plates, and the plates were incubated for 4 h at 37° C. with 5% CO2.
The EGFR (Y1068) phosphorylation level (activity) of cells in each well were then measured with MSD kit named “MULTI-SPOT®96 4-Spot HB Prototype EGFR Triplex [sequence]: pEGFR(Tyr1068),pEGFR(Tyr1173), Total EGFR” according to the manufacturer’s instruction (MESO SCALE DISCOVERY, Cat# N45ZB-1). The assay is an electrochemiluminescent method for determining both phosphorylated and total EGFR of cells with an MSD SECTOR® Imager and the ratio of p-EGFR/total EGFR can be generated by the machine. The Her2 (Y1248) phosphorylation level (activity) of cells in each well were measured with MSD Kit named “Phospho-ErbB2 (Tyr1248) Assay Whole Cell Lysate Kit” according to the manufacturer’s instruction (MESO SCALE DISCOVERY, Cat# K151CLD-3). The assay is an electrochemiluminescent method (MESO SCALE DISCOVERY) for determining both phosphorylated and total Her2 of cells with an MSD SECTOR® Imager and then the ratio of p-Her2/total Her2 can be generated by the machine.

[16] = biological target: T5, EGFR L858R&T790M (Homo sapiens, UniProt P00533, L858R/T790M); experiment: EGFR L858R and T790M cellular phosphorylation inhibition in NCI-H1975 (MSD); type: cell-based; details: NCI-H1975 cells, 4 h compound, p-EGFR(Y1068)/total EGFR; read-out: EGFR L858R and T790M mutation IC50;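 note: phosphorylated and total EGFR detected by electrochemiluminescence, cells exposed to compound in medium containing 1% FBS at 37 °C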
T5 construct: host or cells: NCI-H1975
T5 sequence (P00533 25-1210 T790M/L858R): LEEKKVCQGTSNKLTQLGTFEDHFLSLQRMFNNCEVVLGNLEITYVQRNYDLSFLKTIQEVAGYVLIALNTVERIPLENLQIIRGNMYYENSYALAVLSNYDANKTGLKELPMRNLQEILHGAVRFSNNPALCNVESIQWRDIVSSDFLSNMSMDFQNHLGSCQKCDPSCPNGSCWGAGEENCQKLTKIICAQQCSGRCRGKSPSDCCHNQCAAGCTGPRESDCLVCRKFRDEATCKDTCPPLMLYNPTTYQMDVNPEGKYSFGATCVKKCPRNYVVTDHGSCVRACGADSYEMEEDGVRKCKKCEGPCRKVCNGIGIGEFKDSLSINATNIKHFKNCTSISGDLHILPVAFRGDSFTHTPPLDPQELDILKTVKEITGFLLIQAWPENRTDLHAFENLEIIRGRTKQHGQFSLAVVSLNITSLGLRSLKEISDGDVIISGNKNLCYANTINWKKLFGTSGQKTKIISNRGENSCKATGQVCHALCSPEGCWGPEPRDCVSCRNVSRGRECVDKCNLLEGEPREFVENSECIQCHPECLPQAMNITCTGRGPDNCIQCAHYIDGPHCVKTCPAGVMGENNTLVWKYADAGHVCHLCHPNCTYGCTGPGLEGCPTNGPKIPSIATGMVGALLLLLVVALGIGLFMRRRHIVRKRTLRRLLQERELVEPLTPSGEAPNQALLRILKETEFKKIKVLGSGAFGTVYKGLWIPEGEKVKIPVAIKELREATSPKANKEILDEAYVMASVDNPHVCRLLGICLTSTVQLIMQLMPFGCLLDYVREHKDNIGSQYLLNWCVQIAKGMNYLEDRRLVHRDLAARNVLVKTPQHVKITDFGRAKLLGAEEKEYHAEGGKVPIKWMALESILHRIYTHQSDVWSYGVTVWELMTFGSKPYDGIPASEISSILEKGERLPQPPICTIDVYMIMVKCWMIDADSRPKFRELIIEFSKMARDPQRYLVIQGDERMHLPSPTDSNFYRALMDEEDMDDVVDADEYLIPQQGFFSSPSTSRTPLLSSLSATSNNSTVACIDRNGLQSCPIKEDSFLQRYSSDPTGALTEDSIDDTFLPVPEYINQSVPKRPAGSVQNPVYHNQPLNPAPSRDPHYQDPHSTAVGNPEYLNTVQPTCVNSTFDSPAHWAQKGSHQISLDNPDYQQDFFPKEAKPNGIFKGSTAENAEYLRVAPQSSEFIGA

[17] = Ba/F3 EGFR ASV ins, 72 h proliferation, read-out: EGFR Exon20 ASV insertion GI50
[18] = NCI-H1975, 72 h proliferation, read-out: EGFR L858R and T790M mutation GI50
[19] = Ba/F3 EGFR NPH ins, 72 h proliferation, read-out: EGFR Exon20 NPH insertion GI50
[20] = A431, 72 h proliferation, read-out: EGFR WT A431 GI50

Compound | hepatocyte CLint at 1 µM [1] | IC50 [2] | GI50 [3] | GI50 [4, 17] | hepatocyte CLint at 1 µM [5] | GI50 [6] | GI50 [7] | GI50 [8] | GI50 [9, 18] | GI50 [10, 19] | GI50 [11, 20] | GI50 [12] | IC50 [13] | GI50 ([4]; read-out: EGFR Exon20 ASV insertion GI50 (nM)) | IC50 [14] | GI50 ([9]; read-out: EGFR L858R and T790M mutation GI50 (nM)) | GI50 ([10]; read-out: EGFR Exon20 NPH insertion GI50 (nM)) | IC50 [15] | IC50 [16] | GI50 ([11]; read-out: EGFR WT A431 GI50 (nM))
C=CC(=O)Nc1cc(Nc2nccc(Nc3cc(Cl)c(F)cc3C(C)(C)O)n2)c(OC)cc1N(C)CCN(C)C [Compound 36, (N-(5-(4-(5-chloro-4-fluoro-2-(2-hydroxypropan-2-yl)phenylamino)pyrimidin-2-ylamino)-2-((2-(dimethylamino)ethyl)(methyl)amino)-4-methoxyphenyl)acrylamide)] | 10.3 µL/min/1e6 cells | 5.3 nM | 8.32 nM | 37.8 nM | > 300 µL/min/1e6 cells | 75.2 nM | 881 nM | 6.41 nM | 1.6 nM | 42.7 nM | 41.6 nM | 8.2 nM |  |  |  |  |  |  |  | 
C=CC(=O)Nc1cc(Nc2nccc(Nc3cc(Cl)c(F)cc3C(C)(C)O)n2)c(OC)cc1N1C[C@H]2CN(C)[C@H]2C1 [Compound 89, N-(5-(4-(5-chloro-4-fluoro-2-(2-hydroxypropan-2-yl)phenylamino)pyrimidin-2-ylamino)-4-methoxy-2-((1R,5R)-6-methyl-3,6-diazabicyclo[3.2.0]heptan-3-yl)phenyl)acrylamide formic acid salt] | 3.84 µL/min/1e6 cells | 6.8 nM | 9.86 nM |  |  | 158 nM | > 3000 nM | 11.4 nM |  |  |  | 17.5 nM | 23 nM | 115 nM | 14.8 nM | 2.8 nM | 63.8 nM | 148 nM | 0.7 nM | 63.1 nM
[2H]C([2H])([2H])N(CCN(C)c1cc(OC)c(Nc2ncnc(Nc3cc(F)c(F)cc3C(C)(C)O)n2)cc1NC(=O)C=C)C([2H])([2H])[2H] [Compound 22, N-(2-((2-(bis(methyl-d3)amino)ethyl)(methyl)amino)-5-((4-((4,5-difluoro-2-(2-hydroxypropan-2-yl)phenyl)amino)-1,3,5-triazin-2-yl)amino)-4-methoxyphenyl) acrylamide] | 9.78 µL/min/1e6 cells | 5.5 nM |  | 26.5 nM | 78.4 µL/min/1e6 cells | 44.4 nM |  |  | 2.7 nM | 26.5 nM | 12 nM |  | 8.7 nM |  | 11.2 nM |  |  | 12.2 nM | 0.4 nM | 
C=CC(=O)Nc1cc(Nc2nccc(Nc3cc(Cl)c(F)cc3C(C)(C)O)n2)c(OC)cc1N1C[C@@H](C)C[C@@H]1CN(C)C [Compound 91, N-(5-(4-(5-chloro-4-fluoro-2-(2-hydroxypropan-2-yl)phenylamino)pyrimidin-2-ylamino)-2-((2R,4S)-2-((dimethylamino)methyl)-4-methylpyrrolidin-l-yl)-4-methoxyphenyl) acrylamide] | 8.57 µL/min/1e6 cells | 22.5 nM | 58 nM | 69.6 nM |  | 148 nM | > 3000 nM | 86.8 nM | 2.2 nM | 64.6 nM | 31.5 nM | 79.4 nM | 41.2 nM |  | 26.2 nM |  |  | 183 nM | 1.5 nM | 
C=CC(=O)Nc1cc(Nc2ncnc(Nc3ccc4[nH]ccc4c3C(C)(C)O)n2)c(OC)cc1N(C)CCN(C)C [Compound 94, N-(2-((2-(dimethylamino)ethyl)(methyl)amino)-5-(4-(4-(2-hydroxypropan-2-yl)-1H-indol-5-ylamino)-1,3,5-triazin-2-ylamino)-4-methoxyphenyl)acrylamide] |  | 4.4 nM | 94.8 nM | 80.9 nM |  | 141 nM | > 3000 nM | 21.6 nM | 6.4 nM | 94.9 nM | 16.5 nM | 209 nM | 17.7 nM |  | 28.5 nM |  |  | 28.9 nM | 0.7 nM | 
